Test results taken from ChEMBL document CHEMBL5518155, “Recent advances on dual inhibitors targeting HIV reverse transcriptase associated polymerase and ribonuclease H” (Eur J Med Chem, 2023).
Blank lines part the entries; values can stand above or below the molecule they belong to.

Legend:
Human alphaherpesvirus 1 [1] = experiment: Antiviral activity against HSV-1 KOS infected in African green monkey Vero cells assessed as reduction in virus induced cytopathogenicity by plaque reduction assay; type: functional, organism-based; settings: Human alphaherpesvirus 1, KOS
Human alphaherpesvirus 2 = experiment: Antiviral activity against HSV-2 infected in African green monkey Vero cells assessed as reduction in virus induced cytopathogenicity by plaque reduction assay; type: functional, organism-based; settings: Human alphaherpesvirus 2, Vero
Human alphaherpesvirus 1 [2] = experiment: Antiviral activity against HSV-1 infected in African green monkey Vero cells by plaque reduction assay; type: functional, organism-based; settings: Human alphaherpesvirus 1, Vero
[3] = target: T1, Human immunodeficiency virus type 1 reverse transcriptase (Human immunodeficiency virus 1, UniProt Q72547); experiment: Inhibition of recombinant HIV-1 reverse transcriptase associated RNase H expressed in Escherichia coli BL21 (DE3) using 5-GTTTTCTTTTCCCCCCTGAC-3 Fluorescein/5CAAAAGAAAAGGGGGGACUG-3-Dabcyl as substrate incubated for 1 hr by multilabel counter plate reader method
[4] = target: T1, Human immunodeficiency virus type 1 reverse transcriptase; experiment: Inhibition of N-terminal 6-his-tagged HIV-1 reverse transcriptase RNase H (427 to 560 residues) transfected in Escherichia coli BL21 (DE3)
[5] = target: T1, Human immunodeficiency virus type 1 reverse transcriptase; experiment: Inhibition of HIV-1 reverse transcriptase associated RNA-dependent DNA polymerase
[6] = target: T1, Human immunodeficiency virus type 1 reverse transcriptase; experiment: Inhibition of HIV-1 RNase H polymerase activity
Hepatitis B virus [7] = experiment: Antiviral activity against HBV infected in human HepDES19 cells assessed as reduction in cccDNA accumulation by southern blot analysis; type: functional, organism-based
[8] = Inhibition of DNA polymerase (unknown origin); parameters: species or system Homo sapiens
[9] = target: T1, Human immunodeficiency virus type 1 reverse transcriptase; experiment: Inhibition of HIV-1 RNase H
[10] = tested on: Human immunodeficiency virus 1; experiment: Antiviral activity against HIV-1 harboring L100I mutant infected in human MT4 cells assessed as virus-induced cytopathicity treated for 5 days by MTT assay; type: functional, organism-based; settings: Human immunodeficiency virus 1, MT4, 120 h
[11] = target: T1, Human immunodeficiency virus type 1 reverse transcriptase; experiment: Inhibition of recombinant HIV-1 reverse transcriptase associated RNA-dependent DNA polymerase activity incubated for 30 mins by liquid scintillation method
[12] = Inhibition of HIV-1 RNA-dependent […]; parameters: species or system Human immunodeficiency virus 1
[13] = Cytotoxicity against african green monkey Vero E6 cells incubated for 24 hrs by Cell-titer 96 cell proliferation assay; type: toxicity, cell-based, Vero C1008; settings: chlorocebus sabaeus
[14] = tested on: Human immunodeficiency virus 1; experiment: Antiviral activity against HIV1; type: functional, organism-based
[15] = tested on: Human immunodeficiency virus 1; experiment: Antiviral activity against wild-type HIV-1 IIIB infected in human MT4 cells assessed as virus-induced cytopathicity treated for 5 days by MTT assay; type: functional, organism-based; settings: Human immunodeficiency virus 1, IIIB, MT4, 120 h
[16] = Inhibition of Escherichia coli DNA polymerase I
[17] = Cytotoxicity against HEK-293T cells assessed as reduction in cell growth measured for 72 hrs by MTT assay; type: toxicity, cell-based; settings: human
[18] = tested on: Human immunodeficiency virus 1; experiment: Antiviral activity against HIV-1 harboring reverse transcriptase […] mutant infected in human MT4 cells assessed as reduction in virus-induced cytopathic effect; type: functional, organism-based; settings: Human immunodeficiency virus 1, MT4
Hepatitis B virus [19] = experiment: Antiviral activity against HBV infected in AML12HBV10 cells assessed as reduction viral replication incubated for 48 hrs; type: functional, organism-based; settings: AML12HBV10, 48 h
[20] = tested on: Human immunodeficiency virus 1; experiment: Antiviral activity against wild type HIV-1 IIIB infected in human MT4 cells assessed as protection against virus-induced cytopathic effect incubated for 5 days by MTT assay; type: functional, organism-based; settings: Human immunodeficiency virus 1, IIIB, MT4, 120 h
TZM = experiment: Cytotoxicity against human TZM-bl cells assessed as reduction in viability incubated for 48 hrs by MTT assay; type: functional

Compound: Cc1cc(O)c(=O)c(O)c(O)c1C(=O)c1ccc(-c2ccccc2)cc1
EC50 (Human alphaherpesvirus 1 [1]): 52 nM
EC50 (Human alphaherpesvirus 2): 50 nM
EC50 (Human alphaherpesvirus 1 [2]): 52 nM

Compound: NC(=O)c1c(N)sc2c1CCCCC2
IC50 [3]: 2000 nM

Compound: O=C(Nc1nc2n(n1)C(c1ccccc1)C=C(c1ccccc1)N2)c1ccc(O)c(O)c1 (stereo not drawn)
IC50 [4]: 1.86 µM
IC50 [5]: 20.5 µM

Compound: COC(=O)c1c(C)cc(O)c(=O)c(O)c1O
EC50 (Human alphaherpesvirus 1 [1]): 190 nM
EC50 (Human alphaherpesvirus 2): 400 nM
EC50 (Human alphaherpesvirus 1 [2]): 190 nM
IC50 [6]: 1.5 µM
EC50 (Hepatitis B virus [7]): 6 µM

Compound: COC(=O)c1c(C)cc(O)c(=O)c(O)c1Br
EC50 [10]: 2200 nM

Compound: COc1cc(OC)cc(OC(=O)c2ccc(C(F)(F)F)cc2Nc2cc(Cl)ccc2C)c1
IC50 [5]: 16.1 µM
IC50 [12]: 16.1 µM
CC50 at 24 h [13]: > 50 µM
EC50 [14]: 5 µM

Compound: COc1cc(C)c(C(=O)c2ccc(-c3ccccc3)cc2)c(O)c(O)c1=O
EC50 (Human alphaherpesvirus 1 [2]): 220 nM

Compound: CC(C)(C)c1ccc(C(=O)N/N=C/c2c(O)ccc3ccccc23)cc1
EC50 [15]: 1500 nM
IC50 [4]: 3.5 µM
IC50 [11]: 0.8 µM
IC50 [16]: 12.5 µM

Compound: COc1c(/C=C/C(=O)c2ccc(-c3ccccc3)cc2)ccc2ccccc12
IC50 [12]: 4 µM
IC50 [9]: 6 µM

Compound: COc1ccc2ccccc2c1/C=N/NC(=O)c1ccc(C(C)(C)C)cc1
IC50 [8]: 2000 nM
IC50 [9]: 3 µM

Compound: O=C(Oc1ccc2c(c1OC(=O)c1ccccc1)C(=O)c1ccccc1C2=O)c1ccccc1
CC50 at 72 h [17]: ~100 µM
EC50 [18]: > 100 µM
IC50 [12]: 12 µM

Compound: COC(=O)c1c(C)cc(OC)c(=O)c(O)c1O
EC50 (Hepatitis B virus [19]): 930 nM

Compound: O=C1Nc2ccccc2/C1=N/Nc1nc(-c2ccc(O)c(O)c2)cs1
IC50 [12]: 1.4 µM

Compound: O=C(Nc1sc2c(c1C(=O)Nc1ccccn1)CCCCC2)c1ccc(O)c(O)c1
IC50 [3]: 840 nM

Continued, in another order:

IC50 [3]: 530 nM
Compound: O=c1oc(-c2ccc(O)c(O)c2)nc2sc3ccccc3c12

IC50 [8]: > 50000 nM
IC50 [9]: 15 µM
Compound: COc1ccc2ccccc2c1/C=N/NC(=O)c1ccc(O)c(O)c1

IC50 [11]: 9.8 µM
IC50 [9]: 10 µM
Compound: Cn1c(-c2ccc(-c3ccccc3)cc2)cs/c1=N/N=C1\C(=O)Nc2ccc(Cl)cc21

IC50 [11]: 9.5 µM
IC50 [9]: 1.3 µM
Compound: N#Cc1ccc(-c2csc(NN=C3C(=O)Nc4ccccc43)n2)cc1

IC50 [12]: 79 µM
IC50 [3]: > 100000 nM
Compound: O=C1c2ccccc2C(=O)c2c1ccc(O)c2O [ATHRAQUINONES A]

IC50 [5]: > 50 µM
Compound: Nc1ccc(S(=O)(=O)N2CCN(C(=O)c3cc(O)c(O)c(O)c3)CC2)cc1

IC50 [5]: 39.9 µM
IC50 [6]: 13.1 µM
Compound: COc1ccccc1C(=O)N1CCC(NC(=O)c2cc(O)c(O)c(O)c2)CC1

IC50 [4]: 13.1 µM
IC50 [5]: > 100 µM
Compound: CC1=CC(c2ccccc2)n2nc(NC(=O)CCCc3ccc(C)cc3)nc2N1 (stereo not drawn)

IC50 [6]: 13.5 µM
EC50 (Hepatitis B virus [7]): 5.6 µM
Compound: COC(=O)c1c(C)cc(OC)c(=O)c(O)c1OC

IC50 [12]: 8 µM
IC50 [9]: 4.5 µM
Compound: COc1ccc(-c2cccc(C(N)=O)c2)cc1/C=N/Nc1nc(-c2ccc([N+](=O)[O-])cc2)cs1

IC50 [5]: 17 µM
IC50 [6]: 7 µM
Compound: Nc1nn(C(=O)c2ccc(Cl)cc2)c(N)c1C(=S)Nc1ccccc1
EC50 [20]: 25 µM
CC50 (TZM): 44 µM
